Entries after “also recorded” stand apart in the source; their conditions may differ.
Legend:
Balb/C mice [1] = assay: ELISA for subclass (IgG1/IgG2a) of HBsAg specific antibody; format: in vivo; conditions: Example 6; HBsAg specific antibody in serum; FIG. 15
Balb/C mice [2] = assay: g-IFN ELISPOT after PMID with HBV sAg/cAg plasmid; format: in vivo
Balb/C mice [3] = assay: Anti-sAg and anti-cAg antibody ELISAs after PMID with HBV sAg/cAg plasmid; format: in vivo; conditions: Example 7; either HBV antigen (sAg, cAg); data not shown
Balb/C mice [4] = assay: IL-4 ELISPOT after PMID with HBV sAg/cAg plasmid; format: in vivo
Balb/C mice [5] = conditions: Example 2; prime and boost, HBsAg plasmid with HCMV promoter; FIG. 3
Balb/C mice [6] = assay: IFN-g ELISPOT of spleen cells after HBsAg DNA vaccine immunization; conditions: Example 2; prime and boost; FIG. 4
Balb/C mice [7] = assay: CD8 IFN-g ELISA of spleen cells after HBsAg DNA vaccine immunization; conditions: Example 2; prime and boost; FIG. 4
[8] = Example 7, summary of both experiments

CCCCC[C@H](O)/C=C/[C@H]1[C@H](O)CC(=O)[C@@H]1C/C=C\CCCC(=O)O [PGE2]
ratio of IgG1/IgG2a (Balb/C mice [1]): does not have the same effect overall

CC(C)Cn1cnc2c(N)nc3ccccc3c21 [imiquimod, 1-(2-methyl-propyl)-1H-imidazo[4,5-c]quinolin-4-amine]
g-IFN secretion (Balb/C mice [2]; Example 7, first experiment, highest dose of DNA, delivered right before or right after PMID): slightly inhibitory | g-IFN secretion (Balb/C mice [2]; Example 7, first experiment, highest dose of DNA, given 24 hours after PMID): augments PMID | g-IFN secretion (Balb/C mice [2]; Example 7, first experiment, low doses of DNA, administration 24 hours post PMID compared with other time points): most effective | g-IFN secretion (Balb/C mice [2]; Example 7, first experiment, low doses of HBV-encoding DNA, right before, right after or 24 hours post PMID): enhances g-IFN secretion | g-IFN response with class I-restricted peptide (CD8+ cells) (Balb/C mice [2]; Example 7, first experiment, not shown): comaparable responses | frequency of cells which secreted g-IFN in response to antigen (Balb/C mice [2]; Example 7, first experiment, sAg peptide library (primarily CD4+ cells), 2 weeks post prime, FIG. 16): enhancement of the frequency of cells which secreted g-IFN | IFN-g ELISPOT response (Balb/C mice [2]; [8]): primarily enhanced; also recorded: augments the frequency of g-IFN-secreting cells | optimal time point for augmenting g-IFN-secreting cells (Balb/C mice [2]; Example 7, time of administration relative to PMID): about a day and upto 7 days after PMID | antibody titers (Balb/C mice [3]): little effect; also recorded: did not enhance antibody responses | IL-4 secretion, as measured by ELISPOT assay (Balb/C mice [4]; Example 7, first experiment (prime only), not shown): no effect | EL-4 ELISPOTs (Balb/C mice [4]; [8]): little effect | Antibody levels (Balb/C mice [5]): strong reduction in antibody levels | cellular response, ELISPOTs (Balb/C mice [6]): enhanced the responses | cellular response, IFN-g ELISA (Balb/C mice [7]): enhanced the responses

From US20060088542A1 (priority 2002, published 2006)
